In publication PMC9138505, “Small Molecule 20S Proteasome Enhancer Regulates MYC Protein Stability and Exhibits Antitumor Activity in Multiple Myeloma” (Biomedicines, 2022):
Values joined by “and” are separate entries in the source; they are usually repeats but may differ in a detail not shown here. Equal values may be shown once.

System: RPMI-8226 cells
Assay: Gene expression profiling, NanoString nCounter PanCancer Pathways Panel, ROSALIND analysis
Type: cell-based, human
Details: RPMI-8226, TCH-165 samples 1-3
Method: RPMI-8226 cells were treated with vehicle or TCH-165 (10 μM) for 4 h. Total RNA was obtained using the mirVana miRNA Isolation Kit, with phenol (Thermofisher Scientific; AM1560; Waltham, MA, USA). Total RNA was quantified by Qubit (Thermofisher Scientific; Q32855; Waltham, MA, USA). and gene expression was evaluated against the nCounter® PanCancer Pathways Panel^TM according to the standard NanoString protocol.
Data were analyzed by ROSALIND® [36] with a hyperscale architecture developed by ROSALIND, Inc. (San Diego, CA, USA). Normalization, fold changes and p-values were calculated using criteria provided by NanoString. ROSALIND follows the nCounter® Advanced Analysis protocol of dividing counts within a lane by the geometric mean of the normalizer probes from the same lane. Housekeeping probes to be used for normalization are selected based on the geNorm algorithm, as implemented in the NormqPCR R library. Fold changes and p-values are calculated using the fast method as described in the nCounter Advanced Analysis 2.0 User Manual. The p-value adjustment is performed using the Benjamini–Hochberg method of estimating false discovery rates (FDR). Clustering of genes for the final heatmap of differentially expressed genes was done using the PAM (Partitioning Around Medoids) method using the fpc R library. Hypergeometric distribution was used to analyze the enrichment of pathways, gene ontology, domain structure and other ontologies. The topGO R library was used to determine local similarities and dependencies between GO terms in order to perform Elim pruning correction. Several database sources were referenced for enrichment analysis, including Interpro [40], NCBI [41], MSigDB [42, 43], REACTOME [44], WikiPathways. Enrichment was calculated relative to a set of background genes relevant to the experiment.

**Q.** Which “PDGFA normalized gene expression” value does the source give for CCOC(=O)[C@]1(c2ccccc2)N=C(c2ccc(OC)cc2)N(Cc2ccccc2)[C@@H]1c1ccc(NCc2ccccc2)cc1 [TCH-165] here?
**A.** 6.283 and 6.012 and 6.0068

**Q.** And the “PDGFB normalized gene expression” value?
**A.** 4.649 and 4.855 and 4.437

**Q.** What about the “PDGFRA normalized gene expression” value of the same compound?
**A.** 4.401 and 4.3768 and 3.876

**Q.** What about the “PDGFRB normalized gene expression” value of the same compound?
**A.** 4.86 and 4.614 and 4.483

**Q.** What about the “PGF normalized gene expression” value of the same compound?
**A.** 5.308 and 4.817 and 4.238

**Q.** And the “PIK3CA normalized gene expression” value?
**A.** 10.0553 and 10.0309 and 10.0578

**Q.** And the “PIK3CB normalized gene expression” value?
**A.** 6.955 and 6.836 and 6.778

**Q.** What about the “PIK3CD normalized gene expression” value of the same compound?
**A.** 5.445 and 5.636 and 4.975

**Q.** What about the “PIK3CG normalized gene expression” value of the same compound?
**A.** 8.477 and 8.424 and 8.357

**Q.** And the “PIK3R1 normalized gene expression” value?
**A.** 7.74 and 7.729 and 7.668

**Q.** And the “PIK3R3 normalized gene expression” value?
**A.** 10.4707 and 10.3784 and 10.3886

**Q.** What about the “PIK3R5 normalized gene expression” value of the same compound?
**A.** 8.581 and 8.361 and 8.483

**Q.** And the “PIM1 normalized gene expression” value?
**A.** 9.677 and 9.621 and 9.503

**Q.** And the “PITX2 normalized gene expression” value?
**A.** 3.723 and 3.817 and 3.39

**Q.** What about the “PKMYT1 normalized gene expression” value of the same compound?
**A.** 9.448 and 9.494 and 9.482

**Q.** What about the “PLA1A normalized gene expression” value of the same compound?
**A.** 4.571 and 4.7789 and 4.5707

**Q.** And the “PLA2G2A normalized gene expression” value?
**A.** 5.723 and 5.0613 and 5.549

**Q.** And the “PLA2G3 normalized gene expression” value?
**A.** 5.955 and 5.7789 and 5.549

**Q.** What about the “PLA2G4A normalized gene expression” value of the same compound?
**A.** 9.821 and 9.8479 and 9.947

**Q.** And the “PLA2G4C normalized gene expression” value?
**A.** 3.986 and 4.324 and 4.0682

**Q.** And the “PLA2G5 normalized gene expression” value?
**A.** 4.208 and 4.855 and 5.0068

**Q.** And the “PLA2G10 normalized gene expression” value?
**A.** 4.793 and 4.569 and 4.9095

**Q.** And the “PLAT normalized gene expression” value?
**A.** 5.101 and 4.855 and 4.805

**Q.** And the “PLAU normalized gene expression” value?
**A.** 5.758 and 5.452 and 5.461

**Q.** What about the “PLCB1 normalized gene expression” value of the same compound?
**A.** 7.331 and 7.169 and 7.1906

**Q.** What about the “PLCB4 normalized gene expression” value of the same compound?
**A.** 8.221 and 8.1619 and 8.141

**Q.** And the “PLCE1 normalized gene expression” value?
**A.** 3.571 and 3.962 and 3.291

**Q.** What about the “PLCG2 normalized gene expression” value of the same compound?
**A.** 7.802 and 7.657 and 7.688

**Q.** And the “PLD1 normalized gene expression” value?
**A.** 4.723 and 4.524 and 4.0068

**Q.** And the “PML normalized gene expression” value?
**A.** 9.305 and 9.103 and 9.111

**Q.** What about the “POLB normalized gene expression” value of the same compound?
**A.** 8.277 and 8.166 and 8.094

**Q.** And the “POLD1 normalized gene expression” value?
**A.** 6.955 and 6.97 and 7.225

**Q.** And the “POLE2 normalized gene expression” value?
**A.** 7.876 and 7.784 and 7.712

**Q.** And the “POLR2D normalized gene expression” value?
**A.** 10.3534 and 10.1749 and 10.2456

**Q.** And the “POLR2H normalized gene expression” value?
**A.** 9.625 and 9.653 and 9.593

**Q.** What about the “POLR2J normalized gene expression” value of the same compound?
**A.** 8.023 and 8.1988 and 7.922

**Q.** What about the “PPARG normalized gene expression” value of the same compound?
**A.** 5.308 and 4.093 and 4.841

**Q.** What about the “PPARGC1A normalized gene expression” value of the same compound?
**A.** 5.156 and 4.855 and 4.5707

**Q.** What about the “PPP2CB normalized gene expression” value of the same compound?
**A.** 9.355 and 9.581 and 9.539

**Q.** What about the “PPP2R1A normalized gene expression” value of the same compound?
**A.** 10.9153 and 10.8543 and 10.8588

**Q.** What about the “PPP2R2B normalized gene expression” value of the same compound?
**A.** 5.208 and 3.891 and 3.876

**Q.** And the “PPP2R2C normalized gene expression” value?
**A.** 4.401 and 4.154 and 4.653

**Q.** What about the “PPP3CA normalized gene expression” value of the same compound?
**A.** 8.9359 and 8.866 and 8.858

**Q.** What about the “PPP3CB normalized gene expression” value of the same compound?
**A.** 6.793 and 6.5 and 6.673

**Q.** And the “PPP3CC normalized gene expression” value?
**A.** 7.784 and 7.44 and 7.5547

**Q.** And the “PPP3R1 normalized gene expression” value?
**A.** 12.1844 and 12.0743 and 12.0585

**Q.** What about the “PRDM1 normalized gene expression” value of the same compound?
**A.** 9.955 and 9.965 and 9.796

**Q.** And the “PRKAA2 normalized gene expression” value?
**A.** 5.445 and 4.927 and 5.238

**Q.** And the “PRKACA normalized gene expression” value?
**A.** 10.3765 and 10.3832 and 10.3727

**Q.** What about the “PRKACB normalized gene expression” value of the same compound?
**A.** 9.149 and 8.936 and 8.955

**Q.** And the “PRKACG normalized gene expression” value?
**A.** 5.955 and 4.996 and 4.975

**Q.** What about the “PRKAR1B normalized gene expression” value of the same compound?
**A.** 7.319 and 7.093 and 7.231

**Q.** And the “PRKAR2A normalized gene expression” value?
**A.** 10.8995 and 10.8368 and 10.7359

**Q.** What about the “PRKAR2B normalized gene expression” value of the same compound?
**A.** 4.924 and 5.5 and 5.291

**Q.** And the “PRKCA normalized gene expression” value?
**A.** 5.61 and 5.739 and 5.858

**Q.** And the “PRKCB normalized gene expression” value?
**A.** 5.101 and 5.5 and 5.1271

**Q.** What about the “PRKCG normalized gene expression” value of the same compound?
**A.** 3.208 and 3.154 and 2.805

**Q.** What about the “PRKDC normalized gene expression” value of the same compound?
**A.** 10.6509 and 10.6549 and 10.5707

**Q.** What about the “PRKX normalized gene expression” value of the same compound?
**A.** 6.924 and 6.699 and 6.769

**Q.** What about the “PRL normalized gene expression” value of the same compound?
**A.** 5.156 and 4.7789 and 4.483

**Q.** And the “PRLR normalized gene expression” value?
**A.** 4.401 and 4.324 and 4.483

**Q.** What about the “PROM1 normalized gene expression” value of the same compound?
**A.** 5.488 and 4.817 and 5.1271

**Q.** And the “PTCH1 normalized gene expression” value?
**A.** 6.423 and 6.1393 and 6.303

**Q.** What about the “PTEN normalized gene expression” value of the same compound?
**A.** 10.0245 and 10.0523 and 10.0068

**Q.** And the “PTPN11 normalized gene expression” value?
**A.** 10.4091 and 10.3872 and 10.2825

**Q.** What about the “PTPRR normalized gene expression” value of the same compound?
**A.** 5.156 and 5.27 and 4.876

**Q.** And the “PTTG2 normalized gene expression” value?
**A.** 10.7067 and 10.7173 and 10.7103

**Q.** What about the “RAC1 normalized gene expression” value of the same compound?
**A.** 10.809 and 10.6987 and 10.6841

**Q.** And the “RAC2 normalized gene expression” value?
**A.** 9.175 and 9.2187 and 9.226

**Q.** And the “RAC3 normalized gene expression” value?
**A.** 7.412 and 7.085 and 7.42

**Q.** And the “RAD21 normalized gene expression” value?
**A.** 12.3086 and 12.2658 and 12.2586

**Q.** And the “RAD50 normalized gene expression” value?
**A.** 8.5605 and 8.589 and 8.653

**Q.** What about the “RAD51 normalized gene expression” value of the same compound?
**A.** 8.142 and 8.041 and 8.102

**Q.** And the “RAD52 normalized gene expression” value?
**A.** 7.767 and 7.625 and 7.698

**Q.** What about the “RAF1 normalized gene expression” value of the same compound?
**A.** 10.0005 and 9.906 and 9.965

**Q.** And the “RASA4 normalized gene expression” value?
**A.** 8.175 and 8.284 (2×)

**Q.** And the “RASAL1 normalized gene expression” value?
**A.** 7.884 and 7.864 and 8.034

**Q.** And the “RASGRF1 normalized gene expression” value?
**A.** 5.355 and 5.27 and 5.1271

**Q.** What about the “RASGRF2 normalized gene expression” value of the same compound?
**A.** 4.401 and 4.154 and 4.39

**Q.** What about the “RASGRP1 normalized gene expression” value of the same compound?
**A.** 3.571 and 3.27 and 2.805

**Q.** And the “RASGRP2 normalized gene expression” value?
**A.** 5.355 and 4.7789 and 5.184

**Q.** What about the “RB1 normalized gene expression” value of the same compound?
**A.** 10.4258 and 10.2516 and 10.3605

**Q.** And the “RBX1 normalized gene expression” value?
**A.** 11.212 and 11.2858 and 11.2821

**Q.** What about the “RELA normalized gene expression” value of the same compound?
**A.** 9.023 and 9.033 and 8.932

**Q.** What about the “RELN normalized gene expression” value of the same compound?
**A.** 3.208 and 3.154 and 2.653

**Q.** What about the “RET normalized gene expression” value of the same compound?
**A.** 4.488 and 3.154 and 4.1271

**Q.** And the “RFC3 normalized gene expression” value?
**A.** 10.5818 and 10.4756 and 10.5331

**Q.** What about the “RFC4 normalized gene expression” value of the same compound?
**A.** 10.5805 and 10.6642 and 10.6099

**Q.** What about the “RHOA normalized gene expression” value of the same compound?
**A.** 10.324 and 10.1814 and 10.1759

**Q.** And the “RIN1 normalized gene expression” value?
**A.** 5.308 and 5.324 and 5.211

**Q.** And the “RNF43 normalized gene expression” value?
**A.** 5.044 and 4.569 and 4.528
